Laboratory results: PMC3947597 (Bioorganic & medicinal chemistry, 2013)

Tested on: tubulin (colchicine site)
Experiment: Inhibition of [3H]colchicine binding to tubulin
Conditions: 1.0 µM tubulin, 5.0 µM [3H]colchicine, 10 min at 37 °C

In the case of `COc1ccc(/C=C\c2cc(OC)c(OC)c(OC)c2)cc1O` [CA4, combretastatin A-4], the “Inhibition of colchicine binding (%) ±SD, 1 µM” value (inhibitor 1 µM) is reported as 88±2% and the “Inhibition of colchicine binding (%) ±SD, 5 µM” value (inhibitor 5 µM) is reported as 98±0.5%.
